Reference: patent publication US12150945B2, “Liver disease” (Lipocine Inc., priority 2018, dated 2024)

Experiments:
Format in all cases: in vivo, human
[1] = tested on: ALT, GGT, BUN, total cholesterol, LDL-C, triglyceride; assay: Liver Fat Study: normalization of labs (ALT, GGT, BUN, total cholesterol, LDL-C, triglyceride) at end of study (Example 6)
Description: (§1) This example is part of an ongoing Liver Fat Study which is an open-label, multi-center, single arm study evaluating LPCN 1144 treatment (e.g., androgen therapy, testosterone therapy, oral testosterone ester, or 225 mg testosterone undecanoate orally) in a cohort of 36 hypogonadal males (NCT03868059). Subjects with at least 10% baseline liver fat were evaluated which is indicative of subjects with NAFLD with the potential to have NASH. Interim results of seven of the nine subjects in the Liver Fat Study with baseline liver fat of at least 10% are presented as two subjects were unable to schedule an eight-week MRI-PDFF visit. Baseline mean liver fat of these seven subjects was 21.0%.
(§2) An MRI-PDFF study of 36 male hypogonadal subjects (having 2 morning testosterone levels of 300 ng/dL or less) was performed as part of an ongoing trial. Basic baseline labs including liver function tests (e.g., AST & ALT) and serum triglycerides were collected and analyzed. It was found by non-linear regression, that BMI (ALT, AST, serum Triglyceride) was associated with liver fat (P<0.006). It was found by non-linear regression, that serum triglyceride levels (obesity, hypertension, type 2 diabetes) were associated with liver fat (P<0.006).

[2] = Serum testosterone pharmacokinetics (24-hour PK sampling, LC-MS/MS), phase 3 oral testosterone undecanoate trial of Example 1; conditions: for Average serum T levels: single blood draw 3 to 6 hours post morning dose
Description: (§3) Oral testosterone therapy was evaluated in a multicenter, phase 3, randomized, open-label, active controlled, parallel-group study that included a 13-week efficacy phase and a 52-week safety phase. An active arm in which subjects received T gel was included for safety evaluation only.
Males 18 through 80 years old with a documented diagnosis of primary hypogonadism (congenital or acquired) or hypogonadotropic hypogonadism (congenital or acquired) and with morning serum T<300 ng/dL based on 2 consecutive blood samples obtained between 0600 and 1000 on 2 separate days at approximately the same time were eligible to participate. Subjects were either naïve to T therapy or completed an adequate washout of T therapy (eg, 12 weeks after intramuscular androgen injections excluding TU injections which required a longer waiting period; 4 weeks after topical or buccal androgens; and 3 weeks after oral androgens). Exclusion criteria included abnormal prostate digital rectal examination with palpable nodule(s) or International Prostate Symptom Score (IPSS)>19 points; body mass index ≥38 kg/m^2, clinically significant laboratory values (baseline hemoglobin <11.5 or >16.5 g/dL, hematocrit <35% or >54%, serum transaminases >2.5 times upper limit of normal, serum bilirubin >2.0 mg/dL, creatinine >2.0 mg/dL, prostate specific antigen [PSA]>2 ng/mL, prolactin >17.7 ng/mL); history of seizures or convulsions; any surgical procedure that might interfere with gastrointestinal motility, pH, or absorption; stroke or myocardial infarction within 5 years; current or suspected prostate or breast cancer; severe, untreated, obstructive sleep apnea; long QT syndrome or unexplained sudden death in first-degree relative; concurrent medication use that could impact absorption, distribution, metabolism, or excretion of TU or place subject at risk for treatment with T; and dose changes of antihypertensive, lipid-lowering, or hypoglycemic agents within previous 3 months.
(§4) Subjects were randomized in a 2:1 ratio to oral testosterone undecanoate or T gel. oral testosterone undecanoate subjects started at a dose of 225 mg TU (“testosterone undecanoate”) taken twice daily (total daily dose: 450 mg TU) every 12 hours. For optimal lymphatic absorption oral testosterone undecanoate must be administered with a meal. Therefore, subjects were instructed to administer oral testosterone undecanoate after a standard meal (defined as a meal consisting of 800 to 1400 calories with approximately 20% to 35% fat content). The oral testosterone undecanoate dose was titrated at Weeks 4 and 8, if necessary, based on results of intensive 24-hour PK blood sampling obtained at Weeks 3 and 7, respectively. Oral testosterone undecanoate subjects stayed at the clinic overnight during each intensive PK blood sampling period. […] Oral testosterone undecanoate dose levels permitted during the study were 150 mg BID, 225 mg BID, and 300 mg BID. Data collected during an intensive 24-hour PK sampling overnight stay at Week 13 were used for efficacy analysis; dose was not adjusted at this visit. Additional outpatient visits were conducted at Weeks 26, 39, and 52 during which single blood draws were performed 3 to 6 hours post morning dose. Dose was not adjusted during these visits.
Serum levels of T, TU, dihydrotestosterone (DHT), dihydrotestosterone undecanoate (DHTU), and estradiol (E2) were evaluated in oral testosterone undecanoate treated subjects. […] Sex hormone binding globulin (SHBG) was evaluated in data from all subjects. Serum T concentrations at screening were measured using chemiluminescence immunoassay kits. Hormone assays for pharmacokinetic assessment were analyzed at PPD Bioanalytical Laboratory in Richmond, Virginia Serum samples were analyzed for T, DHT, TU, DHTU, and E2 using a validated liquid chromatography-tandem mass spectrometry (LC-MS/MS) assay.

liver function enzymes = assay: Liver function enzymes (ALT, AST, ALP, GGT, bilirubin), change from baseline to end of study, trial of Example 1
Description: as §3, §4
T gel (ANDROGEL®) (testosterone gel for topical use) 1.62%, AbbVie, Chicago, Illinois, US) was supplied in non-aerosol, metered dose pumps that deliver 20.25 mg T per complete pump actuation. T gel was dosed according to product labeling. Subjects receiving T gel completed outpatient visits at Weeks 2 and 4 with single blood draws to determine titration and at Weeks 3 and 5 for dose changes, if necessary. They also completed an outpatient visit at Week 7 for safety assessments and at Weeks 13, 26, 39 and 52 during which single blood samples were obtained 3 to 6 hours after the morning dose. Dose was not adjusted during these visits. Overnight clinic stays were not required for T gel subjects.
Safety endpoints included adverse events (AEs), physical examination findings, vital signs, electrocardiograms (ECGs), and clinical laboratory tests. AEs were classified using the Medical Dictionary for Regulatory Activities (Version 16.1). Safety endpoints were summarized using descriptive statistics. Lab parameters were evaluated using two sample t-tests comparing change from baseline to end of study (EOS) across oral testosterone undecanoate and T gel subjects with p-values <0.05 considered statistically significant.

liver fat = assay: Liver Fat Study: liver fat by MRI-PDFF in hypogonadal males treated with LPCN 1144 (Example 6); conditions: for Mean relative liver fat % change: 16 weeks of treatment
Description: In an a prospective design open-label, multi-center, single arm ‘Liver Fat Study’ evaluating LPCN 1144 (oral testosterone undecanoate) treatment in hypogonadal patients, baseline % liver fat was assessed via MRI-PDFF in a subset of study patients (N=36).
as §1, §2

[3] = 4th quartile patients based on lab parameter level, 1 year study
[4] = Safety Set, baseline to end of study
[5] = interim, eight-week MRI-PDFF, seven subjects with baseline liver fat of at least 10%

## CCCCCCCCCCC(=O)O[C@H]1CC[C@H]2[C@@H]3CCC4=CC(=O)CC[C@]4(C)[C@H]3CC[C@]12C [oral testosterone undecanoate, testosterone undecanoate]
[1]
  normalization rate for triglyceride: 21%
  subjects with BUN normalization: 60%
  subjects with above normal GGT levels who ended the study with normal GGT levels: 0%
[1]; mean baseline ALT 48.7
  subjects with above normal ALT levels who ended the study with normal ALT levels: 100%
[2]; Week 13
  serum T Cavg0-24 h: 446 ng/dL
  serum T Cmax: 1134 ng/dL
[2]; Week 13, 95% lower bound CI: 81.7%, met predefined efficacy criteria
  subjects with serum T Cavg0-24 h between 300 and 1140 ng/dL: 87.4%
[2]; Week 26
  Average serum T levels: 481 ± 371 ng/dL
[2]; Week 39
  Average serum T levels: 543 ± 438 ng/dL
[2]; Week 52
  Average serum T levels: 538 ± 545 ng/dL
Liver function enzymes; [3]
  ALP, mean change from baseline: −10.2 U/L
  ALP, mean change from baseline, %: −10.4%
  ALT, mean change from baseline: −10.0 U/L
  ALT, mean change from baseline, %: −16.7%
  AST, mean change from baseline: -6.3 U/L
  AST, mean change from baseline, %: −16.6%
  Albumin, mean change from baseline: -2.5 g/L
  Albumin, mean change from baseline, %: −3.1%
  Bilirubin, mean change from baseline: -0.18 mg/dL
  Bilirubin, mean change from baseline, %: −20.5%
  Creatinine, mean change from baseline: 0.01 mg/dL
  Creatinine, mean change from baseline, %: 0.8%
  GGT, mean change from baseline: −7.0 U/L
  GGT, mean change from baseline, %: −7.4%
Liver function enzymes; [4]
  ALT, mean (SD) change from baseline to end of study: −3.07 (11.22) U/L
  AST, mean (SD) change from baseline to end of study: −1.5 (7.52) U/L
  Alkaline phosphatase, mean (SD) change from baseline to end of study: −4.1 (13.33) U/L
  Bilirubin, mean (SD) change from baseline to end of study: −0.43 (3.66) mcmol/L
  GGT, mean (SD) change from baseline to end of study: −2.0 (12.50) U/L
Liver fat; baseline liver fat of 8% or greater
  Mean relative liver fat % change: −42%
Liver fat; baseline liver fat of 10% or greater
  Mean relative liver fat % change: −40%
Liver fat; subjects having NAFLD (baseline liver fat of 5% or greater)
  Mean relative liver fat % change: −33%
Liver fat; end of study
  NAFLD resolved (baseline liver fat greater than or equal to 5% going to less than 5% at end of study), % of subjects: 48%
  mean relative liver fat change in patients with NAFLD resolution: −55%
Liver fat; end of study, greater than or equal to 5% baseline liver fat
  responder rate (% of patients with at least a 30% relative reduction in liver fat from baseline): 71%
Liver fat; end of study, greater than or equal to 8% baseline liver fat
  responder rate (% of patients with at least a 30% relative reduction in liver fat from baseline): 80%
Liver fat; end of study, greater than or equal to 10% baseline liver fat
  responder rate (% of patients with at least a 30% relative reduction in liver fat from baseline): 70%
Liver fat; [5]
  relative mean liver fat reduction from baseline: 38%
  responder rate: at least a 4.1% absolute reduction in liver fat from baseline: 86%
  responder rate: at least a 29% reduction in liver fat from baseline: 71%
Liver fat; interim, eight-week MRI-PDFF, seven subjects with baseline liver fat of at least 10%, baseline mean 21.0%
  absolute mean reduction from baseline of liver fat (MRI-PDFF): 7.6%
